Experiments:
Type in all cases: cell-based
HOP-62 = test: Cytotoxicity against human HOP62 cells assessed as effect on cell growth at 10 uM incubated for 48 hrs by sulforhodamine B assay; conditions: hop-62, 48 h
SK-OV-3 = test: Cytotoxicity against human SKOV3 cells assessed as effect on cell growth at 10 uM incubated for 48 hrs by sulforhodamine B assay; conditions: sk-ov-3, 48 h
RXF 393 = test: Cytotoxicity against human RXF393 cells assessed as effect on cell growth at 10 uM incubated for 48 hrs by sulforhodamine B assay; conditions: rxf 393, 48 h
TK-10 = test: Cytotoxicity against human TK10 cells assessed as effect on cell growth at 10 uM incubated for 48 hrs by sulforhodamine B assay; conditions: tk-10, 48 h
K562 = test: Cytotoxicity against human K562 cells assessed as effect on cell growth at 10 uM incubated for 48 hrs by sulforhodamine B assay; conditions: k562, 48 h
MCF7 = test: Cytotoxicity against human MCF7 cells assessed as effect on cell growth at 10 uM incubated for 48 hrs by sulforhodamine B assay; conditions: mcf7, 48 h
MOLT-4 = test: Cytotoxicity against human MOLT4 cells assessed as effect on cell growth at 10 uM incubated for 48 hrs by sulforhodamine B assay; conditions: molt-4, 48 h
UACC-62 = test: Cytotoxicity against human UACC62 cells assessed as effect on cell growth at 10 uM incubated for 48 hrs by sulforhodamine B assay; conditions: uacc-62, 48 h
MDA-MB-435 = test: Cytotoxicity against human MDA-MB-435 cells assessed as effect on cell growth at 10 uM incubated for 48 hrs by sulforhodamine B assay; conditions: mda-mb-435, 48 h
CAKI-1 = test: Growth inhibition of human Caki1 cells assessed as growth percentage at 10 uM incubated for 48 hrs by sulforhodamine B assay; conditions: caki-1, 48 h
SK-MEL-5 = test: Cytotoxicity against human SK-MEL-5 cells assessed as effect on cell growth at 10 uM incubated for 48 hrs by sulforhodamine B assay; conditions: sk-mel-5, 48 h
DU-145 = test: Cytotoxicity against human DU145 cells assessed as effect on cell growth at 10 uM incubated for 48 hrs by sulforhodamine B assay; conditions: du-145, 48 h
EKVX = test: Cytotoxicity against human EKVX cells assessed as effect on cell growth at 10 uM incubated for 48 hrs by sulforhodamine B assay
SK-MEL-2 = test: Cytotoxicity against human SK-MEL-2 cells assessed as effect on cell growth at 10 uM incubated for 48 hrs by sulforhodamine B assay; conditions: sk-mel-2, 48 h
Hs-578T = test: Cytotoxicity against human Hs 578T cells assessed as effect on cell growth at 10 uM incubated for 48 hrs by sulforhodamine B assay
NCI-H522 = test: Cytotoxicity against human NCI-H522 cells assessed as effect on cell growth at 10 uM incubated for 48 hrs by sulforhodamine B assay; conditions: nci-h522, 48 h
HCT-15 = test: Cytotoxicity against human HCT15 cells assessed as effect on cell growth at 10 uM incubated for 48 hrs by sulforhodamine B assay; conditions: hct-15, 48 h
SNB-19 = test: Cytotoxicity against human SNB19 cells assessed as effect on cell growth at 10 uM incubated for 48 hrs by sulforhodamine B assay; conditions: snb-19, 48 h
M14 = test: Cytotoxicity against human M14 cells assessed as effect on cell growth at 10 uM incubated for 48 hrs by sulforhodamine B assay; conditions: m14, 48 h
UO-31 = test: Cytotoxicity against human UO31 cells assessed as effect on cell growth at 10 uM incubated for 48 hrs by sulforhodamine B assay; conditions: uo-31, 48 h

Measured: Activity

CCCCCCN1C(=O)[C@@H]2C/C(=C\N(C)C)C(=O)N2C1N(C)C (stereo not given in full)
Non-Toxic: HOP-62 | SK-OV-3 | RXF 393 | TK-10 | K562 | MCF7 | MOLT-4 | UACC-62 | MDA-MB-435 | CAKI-1 | SK-MEL-5 | DU-145 | EKVX | SK-MEL-2 | Hs-578T | NCI-H522 | HCT-15 | SNB-19 | M14 | UO-31

CN1C(=O)CC[C@H]1C(=O)NCc1cccc(C(F)(F)F)c1Cl [GSK1482160]
Non-Toxic: HOP-62 | SK-OV-3 | RXF 393 | TK-10 | K562 | MCF7 | MOLT-4 | UACC-62 | MDA-MB-435 | CAKI-1 | SK-MEL-5 | DU-145 | EKVX | SK-MEL-2 | Hs-578T | NCI-H522 | HCT-15 | SNB-19 | M14 | UO-31

O=C(NCc1ccc(Cl)cc1Cl)[C@@H]1CCC(=O)N1c1ccsc1
Non-Toxic: HOP-62 | SK-OV-3 | RXF 393 | TK-10 | K562 | MCF7 | MOLT-4 | UACC-62 | MDA-MB-435 | CAKI-1 | SK-MEL-5 | DU-145 | EKVX | SK-MEL-2 | Hs-578T | NCI-H522 | HCT-15 | SNB-19 | M14 | UO-31

O=C(NCc1ccc(Cl)cc1Cl)[C@@H]1CCC(=O)N1c1nccs1
Non-Toxic: HOP-62 | SK-OV-3 | RXF 393 | TK-10 | K562 | MCF7 | MOLT-4 | UACC-62 | MDA-MB-435 | CAKI-1 | SK-MEL-5 | DU-145 | EKVX | SK-MEL-2 | Hs-578T | NCI-H522 | HCT-15 | SNB-19 | M14 | UO-31

O=C(NCc1ccc(Cl)cc1Cl)[C@@H]1CCC(=O)N1c1ccc(Cl)cc1
Non-Toxic: HOP-62 | SK-OV-3 | RXF 393 | TK-10 | K562 | MCF7 | MOLT-4 | UACC-62 | MDA-MB-435 | CAKI-1 | SK-MEL-5 | DU-145 | EKVX | SK-MEL-2 | Hs-578T | NCI-H522 | HCT-15 | SNB-19 | M14 | UO-31

O=C(NCc1ccc(Cl)cc1Cl)[C@@H]1CCC(=O)N1Cc1ccc(Cl)cc1
Non-Toxic: HOP-62 | SK-OV-3 | RXF 393 | TK-10 | K562 | MCF7 | MOLT-4 | UACC-62 | MDA-MB-435 | CAKI-1 | SK-MEL-5 | DU-145 | EKVX | SK-MEL-2 | Hs-578T | NCI-H522 | HCT-15 | SNB-19 | M14 | UO-31

O=C(NCc1ccc(Cl)cc1Cl)[C@@H]1CCC(=O)N1c1ccccc1
Non-Toxic: HOP-62 | SK-OV-3 | RXF 393 | TK-10 | K562 | MCF7 | MOLT-4 | UACC-62 | MDA-MB-435 | CAKI-1 | SK-MEL-5 | DU-145 | EKVX | SK-MEL-2 | Hs-578T | NCI-H522 | HCT-15 | SNB-19 | M14 | UO-31

O=C(NCc1ccc(Cl)cc1Cl)[C@@H]1CCC(=O)N1c1cscn1
Non-Toxic: HOP-62 | SK-OV-3 | RXF 393 | TK-10 | K562 | MCF7 | MOLT-4 | UACC-62 | MDA-MB-435 | CAKI-1 | SK-MEL-5 | DU-145 | EKVX | SK-MEL-2 | Hs-578T | NCI-H522 | HCT-15 | SNB-19 | M14 | UO-31

O=C(NCc1ccc(Cl)cc1Cl)[C@@H]1CCC(=O)N1c1cccs1
Non-Toxic: HOP-62 | SK-OV-3 | RXF 393 | TK-10 | K562 | MCF7 | MOLT-4 | UACC-62 | MDA-MB-435 | CAKI-1 | SK-MEL-5 | DU-145 | EKVX | SK-MEL-2 | Hs-578T | NCI-H522 | HCT-15 | SNB-19 | M14 | UO-31
